# Measurements as given in ChEMBL document CHEMBL4359818, “Targeting dihydrofolate reductase: Design, synthesis and biological evaluation of novel 6-substituted pyrrolo[2,3-d]pyrimidines as nonclassical antifolates and as potential antitumor agents” (Eur J Med Chem, 2019).
# Active and inactive are the calls of the source. No cut-off for these calls is given here.
# Legend:
# KB [1] = assay: Cell cycle arrest in human KB cells assessed as accumulation at G2 phase at 10 uM after 96 hrs by RNase-1 A/propidium iodide staining-based flow cytometric analysis (reference value: 9.06%); assay type: functional
# Dihydrofolate reductase = target: T1, Dihydrofolate reductase (Homo sapiens, UniProt P00374); assay: Inhibition of recombinant human DHFR using dihydrofolic acid as substrate in presence of NADPH after 15 mins by microplate reader analysis
# T1 sequence (P00374 whole entry): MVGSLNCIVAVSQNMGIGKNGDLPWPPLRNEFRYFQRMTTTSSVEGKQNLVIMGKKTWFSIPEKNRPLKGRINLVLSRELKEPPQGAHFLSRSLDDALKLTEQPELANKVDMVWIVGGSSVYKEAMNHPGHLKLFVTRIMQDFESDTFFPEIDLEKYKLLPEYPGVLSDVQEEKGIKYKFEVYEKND
# KB [2] = assay: Antiproliferative activity against human KB cells at 0.01 to 1 uM in presence of thymidine; assay type: functional, cell-based
# [3] = Selectivity index, ratio of IC50 for HUVEC to IC50 for human KB cells; assay type: toxicity; settings: HUVEC and KB cells, read-out: Ratio IC50
# KB [4] = assay: Cell cycle arrest in human KB cells assessed as accumulation at G1 phase at 10 uM after 96 hrs by RNase-1 A/propidium iodide staining-based flow cytometric analysis (reference value: 42.69%); assay type: functional
# KB [5] = assay: Antiproliferative activity against human KB cells assessed as reduction in cell viability after 72 hrs by MTT assay; assay type: functional, cell-based
# KB [6] = assay: Antiproliferative activity against human KB cells at 0.01 to 1 uM in presence of adenosine; assay type: functional, cell-based
# KB [7] = assay: Inhibition of colony formation in human KB cells at 100 nM after 10 to 14 days by methylene blue staining based assay; assay type: functional, cell-based
# SW-620 [8] = assay: Antiproliferative activity against human SW620 cells assessed as reduction in cell viability after 72 hrs by MTT assay; assay type: functional, cell-based; settings: SW-620, 72 h
# A549 [9] = assay: cells; settings: Homo sapiens, A549, 72 h
# Description: Antiproliferative activity against human A549 cells assessed as reduction in cell viability after 72 hrs by MTT assay
# KB [10] = assay: Antiproliferative activity against human KB cells at 0.01 to 1 uM in presence of AICA; assay type: functional, cell-based
# HUVEC = assay: Cytotoxicity against HUVEC assessed as reduction in cell viability after 72 hrs by MTT assay; assay type: cell-based; settings: Homo sapiens
# KB [11] = assay: Cell cycle arrest in human KB cells assessed as accumulation at S phase at 10 uM after 96 hrs by RNase-1 A/propidium iodide staining-based flow cytometric analysis (reference value: 48.26%); assay type: functional
# A549 [12] = assay: Potency index, ratio of IC50 for pemetrexed to IC50 for test compound for antiproliferative activity against human A549 cells after 72 hrs by MTT assay; assay type: functional
# SW-620 [13] = assay: Potency index, ratio of IC50 for pemetrexed to IC50 for test compound for antiproliferative activity against human SW620 cells after 72 hrs by MTT assay; assay type: functional
# A549 [14] = assay: Potency index, ratio of IC50 for methotrexate to IC50 for test compound for antiproliferative activity against human A549 cells after 72 hrs by MTT assay; assay type: functional
# KB [15] = assay: Inhibition of colony formation in human KB cells at 100 nM after 10 to 14 days by methylene blue staining based assay relative to untreated control; assay type: functional
# KB [16] = assay: Potency index, ratio of IC50 for pemetrexed to IC50 for test compound for antiproliferative activity against human KB cells after 72 hrs by MTT assay; assay type: functional
# KB [17] = assay: Antiproliferative activity against human KB cells in presence of AICA and thymidine; assay type: functional, cell-based
# KB [18] = assay: Antiproliferative activity against human KB cells in presence of thymidine; assay type: functional, cell-based
# KB [19] = assay: Antiproliferative activity against human KB cells in presence of AICA; assay type: functional, cell-based
# KB [20] = assay: Antiproliferative activity against human KB cells in presence of adenosine; assay type: functional, cell-based
# KB [21] = settings: Homo sapiens, 10 nM
# Description: Inhibition of colony formation in human KB cells at 10 nM after 10 to 14 days by methylene blue staining based assay
# [22] = target: T2, Dihydrofolate reductase (Homo sapiens) (UniProt P00374); assay: Potency index, ratio of IC50 for methotrexate to test compound IC50 for inhibition of recombinant human DHFR
# T2 sequence (whole entry): T1 sequence (P00374 whole entry)
IC50 (Dihydrofolate reductase),IC50 (KB [5]),IC50 (SW-620 [8]),IC50 (A549 [9]),SMILES,Activity (KB [1]),Activity (KB [4]),inhibition (KB [7]),IC50 (HUVEC),Activity (KB [11]),further results
0.0293 µM,0.023 µM,0.0152 µM,0.0189 µM,Nc1nc2[nH]c(CCNC(=O)c3ccc(C(=O)NCc4ccccn4)cc3)cc2c(=O)[nH]1,9.33%,65.92%,Active,5.93 µM,24.75%,Activity (KB [2]): Active; selectivity ratio [3]: 257; Activity (KB [6]): Active; Activity (KB [10]): Active
≥ 1 µM,0.0899 µM,≥ 1 µM,≥ 1 µM,Nc1nc2[nH]c(CCNC(=O)c3ccccc3C(=O)NCc3ccncc3)cc2c(=O)[nH]1,–,–,Active,–,–,–
≥ 1 µM,0.0905 µM,≥ 1 µM,≥ 1 µM,Nc1nc2[nH]c(CCNC(=O)c3ccccc3C(=O)NCc3ccccn3)cc2c(=O)[nH]1,–,–,Active,–,–,–
0.049 µM,0.0102 µM,0.015 µM,0.0121 µM,Nc1nc2[nH]c(CCNC(=O)c3ccc(C(=O)NCc4ccncc4)cc3)cc2c(=O)[nH]1,9.66%,56.59%,–,8.83 µM,33.74%,Ratio IC50 (A549 [12]): 104; Ratio IC50 (SW-620 [13]): 7; Ratio IC50 (A549 [14]): 81; Activity (KB [2]): Active; selectivity ratio [3]: 867; Activity (KB [6]): Active; inhibition at 0.1 µM (KB [15]): 80%; Ratio IC50 (KB [16]): 7; Activity (KB [10]): Active
–,–,0.0802 µM,–,Nc1nc2[nH]cc(CCc3ccc(C(=O)N[C@@H](CCC(=O)O)C(=O)O)cc3)c2c(=O)[nH]1 [PEMETREXED],0%,72.11%,Active,1.73 µM,27.89%,Activity (KB [17]): inactive; Activity (KB [18]): inactive; Activity (KB [19]): inactive; Activity (KB [20]): inactive
–,–,0.0131 µM,–,CN(Cc1cnc2nc(N)nc(N)c2n1)c1ccc(C(=O)N[C@@H](CCC(=O)O)C(=O)O)cc1 [METHOTREXATE],–,–,–,6.13 µM,–,inhibition (KB [21]): Active
≥ 1 µM,0.0565 µM,≥ 1 µM,≥ 1 µM,Nc1nc2[nH]c(CCNC(=O)c3ccccc3C(=O)NCc3cccnc3)cc2c(=O)[nH]1,–,–,Active,–,–,–
0.0659 µM,0.025 µM,0.0602 µM,≥ 1 µM,Nc1nc2[nH]c(CCNC(=O)c3cccc(C(=O)NCc4ccncc4)c3)cc2c(=O)[nH]1,–,–,Active,–,–,–
0.0379 µM,0.0112 µM,0.0131 µM,0.0124 µM,Nc1nc2[nH]c(CCNC(=O)c3ccc(C(=O)NCc4cccnc4)cc3)cc2c(=O)[nH]1,6.26%,38.38%,Active,2.97 µM,55.36%,Activity (KB [2]): Active; selectivity ratio [3]: 265; Activity (KB [6]): Active; Activity (KB [10]): Active
0.00928 µM,0.102 µM,≥ 1 µM,≥ 1 µM,Nc1nc2[nH]c(CCNC(=O)c3cccc(C(=O)NCc4ccccn4)c3)cc2c(=O)[nH]1,–,–,Active,–,–,Ratio IC50 [22]: 2.6
0.0534 µM,0.0888 µM,0.153 µM,≥ 1 µM,Nc1nc2[nH]c(CCNC(=O)c3cccc(C(=O)NCc4cccnc4)c3)cc2c(=O)[nH]1,–,–,Active,–,–,–
